Biological target: GCN2 (Homo sapiens, UniProt Q9P2K8)
Assay: TR-FRET biochemical assay for inhibition of GCN2 (Example 106, for Example 1-4BB)
Details: Table 8

Chain of GCN2 (Q9P2K8 whole entry): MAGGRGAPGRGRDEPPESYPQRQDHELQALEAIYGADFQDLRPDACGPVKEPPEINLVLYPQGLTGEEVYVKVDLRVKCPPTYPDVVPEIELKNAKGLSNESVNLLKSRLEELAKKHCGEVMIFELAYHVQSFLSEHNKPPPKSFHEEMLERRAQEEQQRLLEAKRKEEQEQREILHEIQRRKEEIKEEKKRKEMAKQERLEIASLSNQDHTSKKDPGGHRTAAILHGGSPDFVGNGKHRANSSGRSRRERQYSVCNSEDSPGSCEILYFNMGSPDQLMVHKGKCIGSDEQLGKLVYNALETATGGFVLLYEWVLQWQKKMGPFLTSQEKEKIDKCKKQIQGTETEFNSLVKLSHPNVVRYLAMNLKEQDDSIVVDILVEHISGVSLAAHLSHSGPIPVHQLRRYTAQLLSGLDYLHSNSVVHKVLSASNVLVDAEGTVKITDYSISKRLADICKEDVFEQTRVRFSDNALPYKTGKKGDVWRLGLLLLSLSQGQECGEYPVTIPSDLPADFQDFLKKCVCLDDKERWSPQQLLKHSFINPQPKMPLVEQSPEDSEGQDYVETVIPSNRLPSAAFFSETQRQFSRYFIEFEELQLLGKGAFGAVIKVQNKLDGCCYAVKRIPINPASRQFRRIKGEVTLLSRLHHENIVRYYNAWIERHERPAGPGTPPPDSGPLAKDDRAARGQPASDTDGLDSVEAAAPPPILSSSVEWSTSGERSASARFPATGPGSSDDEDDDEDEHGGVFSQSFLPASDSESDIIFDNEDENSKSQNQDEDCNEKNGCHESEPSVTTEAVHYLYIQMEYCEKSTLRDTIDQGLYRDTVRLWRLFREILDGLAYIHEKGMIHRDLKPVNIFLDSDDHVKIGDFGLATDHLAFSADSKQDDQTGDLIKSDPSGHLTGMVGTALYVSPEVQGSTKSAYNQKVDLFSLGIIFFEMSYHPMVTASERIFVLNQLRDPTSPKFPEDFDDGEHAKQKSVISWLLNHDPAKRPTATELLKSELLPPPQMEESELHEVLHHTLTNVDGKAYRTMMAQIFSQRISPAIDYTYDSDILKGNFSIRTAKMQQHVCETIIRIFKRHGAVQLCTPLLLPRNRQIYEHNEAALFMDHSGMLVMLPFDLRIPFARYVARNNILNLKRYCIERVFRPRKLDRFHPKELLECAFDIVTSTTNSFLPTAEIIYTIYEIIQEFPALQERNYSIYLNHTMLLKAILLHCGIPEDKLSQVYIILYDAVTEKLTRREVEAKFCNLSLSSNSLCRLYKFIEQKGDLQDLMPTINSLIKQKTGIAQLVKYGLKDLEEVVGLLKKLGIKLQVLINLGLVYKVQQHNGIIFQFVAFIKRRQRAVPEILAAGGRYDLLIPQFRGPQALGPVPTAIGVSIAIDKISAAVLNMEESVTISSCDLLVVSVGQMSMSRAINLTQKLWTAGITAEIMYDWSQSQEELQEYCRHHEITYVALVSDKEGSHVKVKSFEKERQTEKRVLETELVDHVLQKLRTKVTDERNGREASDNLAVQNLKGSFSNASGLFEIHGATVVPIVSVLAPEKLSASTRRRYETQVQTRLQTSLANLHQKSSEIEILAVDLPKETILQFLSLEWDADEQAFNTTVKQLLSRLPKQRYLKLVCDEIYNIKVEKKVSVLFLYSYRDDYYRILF

Row | SMILES | IC50 [nM]
1 | O=S(=O)(Nc1ccc(F)c(-c2ccc3c(-c4ncc[nH]4)n[nH]c3c2F)c1F)c1ccc(F)c(F)c1 [Example 2BO, N-(2,4-difluoro-3-(7-fluoro-3-(1H-imidazol-2-yl)-1H-indazol-6-yl)phenyl)-3,4-difluorobenzenesulfonamide] | 500 to 2500
2 | O=S(=O)(Nc1ccc(F)c(-c2ccc3c(-c4ncc[nH]4)n[nH]c3c2F)c1F)c1cccc(Cl)c1Cl [Example 2BL, 2,3-dichloro-N-(2,4-difluoro-3-(7-fluoro-3-(1H-imidazol-2-yl)-1H-indazol-6-yl)phenyl)-benzenesulfonamide] | < 500
3 | O=S(=O)(Nc1ccc(F)c(-c2ccc3c(-c4ncc[nH]4)n[nH]c3c2F)c1F)c1ccc(F)cc1Cl [Example 2BS] | < 500
4 | O=S(=O)(Nc1ccc(F)c(-c2ccc3c(-c4ncc[nH]4)n[nH]c3c2F)c1F)c1ccc(Cl)cc1Cl [Example 2BN, 2,4-dichloro-N-(2,4-difluoro-3-(7-fluoro-3-(1H-imidazol-2-yl)-1H-indazol-6-yl)phenyl)-benzenesulfonamide] | < 500
5 | COc1ncc(Cl)cc1S(=O)(=O)Nc1cccc(-c2ccc3c(-c4ncc[nH]4)n[nH]c3c2F)c1F [Example 2M, 5-chloro-N-(2-fluoro-3-(7-fluoro-3-(1H-imidazol-2-yl)-1H-indazol-6-yl)phenyl)-2-methoxy-pyridine-3-sulfonamide] | < 500
6 | COc1ncc(Cl)cc1S(=O)(=O)Nc1ccc(F)c(-c2ccc3c(C(=O)NCCCN(C)C)n[nH]c3c2F)c1F [Example 2CG, 6-(3-((5-chloro-2-methoxy-pyridine)-3-sulfonamido)-2,6-difluorophenyl)-N-(3-(di-methylamino)propyl)-7-fluoro-1H-indazole-3-carboxamide] | < 500
7 | COc1ncc(Cl)cc1S(=O)(=O)Nc1ccc(F)c(-c2ccc3c(-c4ncc[nH]4)n[nH]c3c2)n1 [Example 2CA] | 500 to 2500
8 | COc1nn(C)cc1S(=O)(=O)Nc1ccc(F)c(-c2ccc3c(-c4ncc[nH]4)n[nH]c3c2F)c1F [Example 2K, N-(2,4-difluoro-3-(7-fluoro-3-(1H-imidazol-2-yl)-1H-indazol-6-yl)phenyl)-3-methoxy-1-methyl-1H-pyrazole-4-sulfonamide] | 500 to 2500
9 | Cn1cc(S(=O)(=O)Nc2ccc(F)c(-c3ccc4c(-c5ncc[nH]5)n[nH]c4c3F)c2F)cn1 [Example 2C, N-(2,4-difluoro-3-(7-fluoro-3-(1H-imidazol-2-yl)-1H-indazol-6-yl)phenyl)-1-methyl-1H-pyrazole-4-sulfonamide] | 2500 to 10000
10 | COc1ncc(Cl)cc1S(=O)(=O)Nc1ccc(F)c(-c2ccc3c(N)n[nH]c3c2F)c1F [Example 7, N-(3-(3-Amino-7-fluoro-1H-indazol-6-yl)-2,4-difluorophenyl)-5-chloro-2-methoxypyridine-3-sulfonamide] | 500 to 2500
11 | CC(C)c1cccc(S(=O)(=O)Nc2ccc(F)c(-c3ccc4c(-c5ncc[nH]5)n[nH]c4c3F)c2F)c1 [Example 2L, N-(2,4-difluoro-3-(7-fluoro-3-(1H-imidazol-2-yl)-1H-indazol-6-yl)phenyl)-3-isopropyl-benzenesulfonamide] | 2500 to 10000
12 | O=S(=O)(Nc1ccc(F)c(-c2ccc3c(-c4ncc[nH]4)n[nH]c3c2F)c1F)c1ccccc1 [Example 2BV, N-(2,4-difluoro-3-(7-fluoro-3-(1H-imidazol-2-yl)-1H-indazol-6-yl)phenyl)benzene-sulfonamide] | 500 to 2500
13 | COc1ncc(Cl)cc1S(=O)(=O)Nc1ccc(F)c(-c2ccc3c(-c4ncc[nH]4)n[nH]c3c2F)c1 [Example 2J, 5-chloro-N-(4-fluoro-3-(7-fluoro-3-(1H-imidazol-2-yl)-1H-indazol-6-yl)phenyl)-2-methoxy-pyridine-3-sulfonamide] | < 500

Same assay, conditions: Table 9

Row | SMILES | IC50 [nM]
14 | Cc1ncc(F)cc1S(=O)(=O)Nc1cc(F)cc(-c2ccc3c(C(=O)NCCCN(C)C)n[nH]c3c2F)c1F [Example 3CD, 6-(2,5-difluoro-3-((5-fluoro-2-methylpyridine)-3-sulfonamido)phenyl)-N-(3-(dimethylamino)propyl)-7-fluoro-1H-indazole-3-carboxamide] | < 500
15 | COc1ncc(F)cc1S(=O)(=O)Nc1ccc(F)c(-c2ccc3c(C(=O)NCC(N)=O)n[nH]c3c2F)c1F [Example 3AM, N-(2-amino-2-oxoethyl)-6-(2,6-difluoro-3-((5-fluoro-2-methoxypyridine)-3-sulfon-amido)phenyl)-7-fluoro-1H-indazole-3-carboxamide] | 500 to 2500
16 | COc1ncc(C#N)cc1S(=O)(=O)Nc1ccc(F)c(-c2ccc3c(-c4ncc[nH]4)n[nH]c3c2F)c1F [Example 3DJ, 5-cyano-N-(2,4-difluoro-3-(7-fluoro-3-(1H-imidazol-2-yl)-1H-indazol-6-yl)phenyl)-2-methoxypyridine-3-sulfonamide] | < 500
17 | COc1ncc(Cl)cc1S(=O)(=O)Nc1ccc(F)c(-c2ccc3c(C(=O)Nc4cnn(C)c4)n[nH]c3c2F)c1F [Example 3BQ, 6-(3-((5-chloro-2-methoxy-pyridine)-3-sulfonamido)-2,6-difluorophenyl)-7-fluoro-N-(1-methyl-1H-pyrazol-4-yl)-1H-indazole-3-carboxamide] | 500 to 2500
18 | COc1ncc(F)cc1S(=O)(=O)Nc1cccc(-c2ccc3c(C(N)=O)n[nH]c3c2F)c1F [Example 3AN, 7-fluoro-6-(2-fluoro-3-((5-fluoro-2-methoxypyridine)-3-sulfonamido)phenyl)-1H-indazole-3-carboxamide] | < 500
19 | COc1ncncc1S(=O)(=O)Nc1ccc(F)c(-c2ccc3c(C(=O)NCCCO)n[nH]c3c2F)c1F [Example 3CL, 6-(2,6-difluoro-3-((4-methoxypyrimidine)-5-sulfonamido)phenyl)-7-fluoro-N-(3-hydroxypropyl)-1H-indazole-3-carboxamide] | > 10000
20 | COc1ncc(CO)cc1S(=O)(=O)Nc1ccc(F)c(-c2ccc3c(-c4ncc[nH]4)n[nH]c3c2F)c1F [Example 3DC, N-(2,4-difluoro-3-(7-fluoro-3-(1H-imidazol-2-yl)-1H-indazol-6-yl)phenyl)-5-(hydroxylmethyl)-2-methoxypyridine-3-sulfonamide] | 500 to 2500
21 | Cc1ncc(C#N)cc1S(=O)(=O)Nc1ccc(F)c(-c2ccc3c(C(N)=O)n[nH]c3c2F)c1F [Example 4E] | < 500
22 | Cc1c(CO)cc(F)cc1S(=O)(=O)Nc1ccc(F)c(-c2ccc3c(C(=O)NCCCO)n[nH]c3c2F)c1F [Example 4H] | < 500
23 | COc1ncc(F)cc1S(=O)(=O)Nc1ccc(F)c(-c2ccc3c(C(=O)NCCCO)n[nH]c3c2F)c1F [Example 3R, 6-(2,6-difluoro-3-((5-fluoro-2-methoxypyridine)-3-sulfonamido)phenyl)-7-fluoro-N-(3-hydroxypropyl)-1H-indazole-3-carboxamide] | < 500
24 | COc1ncc(F)cc1S(=O)(=O)Nc1cccc(-c2ccc3c(-c4ncc[nH]4)n[nH]c3c2F)c1F [Example 3V, N-(2-fluoro-3-(7-fluoro-3-(1H-imidazol-2-yl)-1H-indazol-6-yl)phenyl)-5-fluoro-2-methoxypyridine-3-sulfonamide] | < 500
25 | Cc1c(CO)cc(F)cc1S(=O)(=O)Nc1ccc(F)c(-c2ccc3c(C(N)=O)n[nH]c3c2F)c1F [Example 4G] | < 500
26 | COc1ncc(C#N)cc1S(=O)(=O)Nc1cc(F)cc(-c2ccc3c(C(=O)NCCCO)n[nH]c3c2F)c1F [Example 3DP, 6-(3-((5-cyano-2-methoxy-pyridine)-3-sulfonamido)-2,5-difluorophenyl)-7-fluoro-N-(3-hydroxypropyl)-1H-indazole-3-carboxamide] | < 500
27 | COc1ncc(CO)cc1S(=O)(=O)Nc1ccc(F)c(-c2ccc3c(C(N)=O)n[nH]c3c2F)c1F [Example 3DE, 6-(2,6-difluoro-3-((5-(hydroxylmethyl)-2-methoxy-pyridine)-3-sulfonamido)-phenyl)-7-fluoro-1H-indazole-3-carboxamide] | 2500 to 10000
28 | COc1ncc(F)cc1S(=O)(=O)Nc1cccc(-c2ccc3c(-c4ncc[nH]4)n[nH]c3c2C)c1F [Example 22, N-(3-(3-(1H-Imidazol-2-yl)-7-methyl-1H-indazol-6-yl)-2-fluorophenyl)-5-fluoro-2-methoxypyridine-3-sulfonamide] | 500 to 2500
29 | COc1ncc(C#N)cc1S(=O)(=O)Nc1cc(F)cc(-c2ccc3c(-c4ncc[nH]4)n[nH]c3c2F)c1F [Example 3BV, 5-cyano-N-(2,5-difluoro-3-(7-fluoro-3-(1H-imidazol-2-yl)-1H-indazol-6-yl)phenyl)-2-methoxypyridine-3-sulfonamide] | < 500
30 | O=C(Nc1cnn(CCO)c1)c1n[nH]c2c(F)c(-c3c(F)ccc(NS(=O)(=O)c4cc(F)cc(CO)c4Cl)c3F)ccc12 [Example 4AC] | < 500
31 | COc1ncc(F)cc1S(=O)(=O)Nc1cccc(-c2ccc3c(C(=O)NCCCO)n[nH]c3c2F)c1F [Example 26, 7-Fluoro-6-(2-fluoro-3-((5-fluoro-2-methoxypyridine)-3-sulfonamido)phenyl)-N-(3-hydroxypropyl)-1H-indazole-3-carboxamide] | < 500
32 | COc1ncc(F)cc1S(=O)(=O)Nc1cc(F)cc(-c2ccc3c(C(=O)NCCCN(C)C)n[nH]c3c2F)c1F [Example 3BK, 6-(3-((5-fluoro-2-methoxy-pyridine)-3-sulfonamido)-2,5-difluorophenyl)-N-(3-(dimethylamino)propyl)-7-fluoro-1H-indazole-3-carboxamide] | < 500
33 | COc1ncc(F)cc1S(=O)(=O)Nc1ccc(F)c(-c2ccc3c(C(=O)NC4CCNCC4)n[nH]c3c2F)c1F [Example 3AU, 6-(2,6-difluoro-3-((5-fluoro-2-methoxypyridine)-3-sulfonamido)phenyl)-7-fluoro-N-(piperidin-4-yl)-1H-indazole-3-carboxamide] | 500 to 2500
34 | COc1ncc(F)cc1S(=O)(=O)Nc1ccc(F)c(-c2ccc3c(C(=O)Nc4cn[nH]c4)n[nH]c3c2F)c1F [Example 3BO, 6-(2,6-difluoro-3-((5-fluoro-2-methoxypyridine)-3-sulfonamido)phenyl)-7-fluoro-N-(1H-pyrazol-4-yl)-1H-indazole-3-carboxamide] | < 500
35 | COc1nscc1S(=O)(=O)Nc1cc(F)cc(-c2ccc3c(-c4ncc[nH]4)n[nH]c3c2F)c1F [Example 3BZ, N-(2,5-difluoro-3-(7-fluoro-3-(1H-imidazol-2-yl)-1H-indazol-6-yl)phenyl)-3-methoxyisothiazole-4-sulfonamide] | < 500
